The record followed here is patent US11576896B2, “Benzoselenophene-based compounds, pharmaceutical compositions and antibody-drug conjugates including the same” (AIMED BIO INC., priority 2020, dated 2023).

Read-outs that look alike come from different tables or passages of the source.

The test system of test [1] is Gastric cancer cells NCI-N87. Nature of the test: High-throughput screening (HTS) cytotoxicity, ATPlite assay. It counts as cell-based. The following applies: NCI-N87 (HER+), 384-well, 72 hours; for IC50: Homo sapiens. More on the design: AUC (area under the curve): unit not given beside the values. How it is done: (§1) The present inventors used an HTS system capable of screening various drugs or substances at once to further screen cytotoxicity of DS-26 (Example 1) and DS-28 (Comparative Example 1). Gastric cancer cells NCI-N87 and ovarian cancer cells SK-OV-3 were separately seeded in a 384-well and treated with drugs at various concentrations and cultured for 72 hours. Then, the degree of cell growth was measured by ATPlite assay. The measured data were converted into IC50 using GraphPad Prism 5.0 software, and area under the curve (AUC) was converted to analyze the titer of each drug.
(§2) Also, DS-26 has stable solubility and stability in terms of chemical structure and thus considered worthy to be developed into drugs.

In test [2] the test system is ovarian cancer cells SK-OV-3. Described as above. It counts as cell-based. More on the design: AUC (area under the curve): unit not given beside the values. Conditions: for IC50: Homo sapiens. As for the experimental part: as §1, §2
The mark [3] stands for this setting: SK-OV-3 (HER+), 384-well, 72 hours, ATPlite, read-out: IC50.
[4] abbreviates: SK-OV-3 (HER+), 384-well, 72 hours, ATPlite.

As to `COCCOCCOCCOCCOc1cc2[se]c(C(=O)N3C[C@@H](CCl)c4c3cc(O)c3ccc(OC)cc43)cc2cc1NC(C)=O` [DS-28, reference compound], the half-inhibitory concentration (IC50) (usually the point on the concentration scale where inhibition reaches its midpoint) in test [1] worked out at 5.86 nM; in test [2] (setting [3]), 1.68 nM. In addition, the “AUC (area under the curve)” value is listed as 689 in test [1] and 613 in test [2] (setting [4]).
`COc1ccc2c(O)cc3c(c2c1)[C@H](CCl)CN3C(=O)c1cc2cc(NC(=O)CCN(C)C)ccc2[se]1` [DS-26, (S)—N-(2-(1-(chloromethyl)-5-hydroxy-8-methoxy-2,3-dihydro-1H-benzo[e]indole-3-carbonyl)benzo[b]selenophen-5-yl)-3-(dimethylamino)propanamide]: the IC50 in test [1] was 0.00555 nM; in test [2] (setting [3]), 0.042 nM; in test [2] (text summary of Table 1 and FIGS. 2A-3B, cell line not specified (NCI-N87 and SK-OV-3 tested), read-out: IC50 (text summary of HTS result)), 0.04 to 0.05 nM. In addition, the entries for the “AUC (area under the curve)” value in test [1] and in test [2] (setting [4]) were 477 and 481, respectively.
